Results from patent US9902713B2, “Neuroprotective compounds and use thereof” (BOARD OF REGENTS OF THE UNIVERSITY OF TEXAS SYSTEM, priority 2013, dated 2018).

Assays:
[1] = test system: newborn hippocampal neurons; assay: In vivo neuroprotection assay: BrdU+ newborn hippocampal neurons; design: species or system mice; settings: for # cell (E6)/mm^3 (number of BrdU+ cells): in vivo neuroprotection assay, Table 2
Method: Results. Our most robust assay involves monitoring neuroprotection of newborn hippocampal neurons in mice because this assay gives a simultaneous readout of efficacy, acute toxicity and cell permeability. For this reason, all analogs of P7C3 were evaluated initially by infusing them directly into the left lateral ventricle of environmentally-deprived^ix live mice using a subcutaneously implanted osmotic minipump. Compounds were delivered intracerebroventricularly (ICV) over a 7 day period at a concentration of 10 μM (12 μL/d).^x Coincident with ICV administration of drug, mice were dosed daily with the thymidine analog bromodeoxyuridine (BrdU, IP, 50 mg/kg) to mark newly born hippocampal neural precursor cells. At the end of the 1 week dosing, animals were sacrificed and transcardially perfused. Brain slices were stained with antibodies to BrdU, and the number of surviving neural precursor cells was quantified by counting the number of BrdU+ cells in the hippocampal dentate gyrus. To avoid complications arising from the surgical implantation of the pump, we quantified neurogenesis in the hemisphere opposite to compound infusion. Finally, to obtain consistent data across many animals, the number of BrdU+ cells was normalized to the volume of the dentate gyrus.
In Vivo Neuroprotection Assay. Test compounds were evaluated as described previously.^2 Compounds were infused intracerebroventricularly (i.c.v.) into the left lateral ventricle of four adult (12 week old) wild-type C57BL/J6 mice by means of surgically implanted Alzet osmotic minipumps that delivered solution into animals at a constant rate of 0.5 μl/hour for 7 days. Alternatively, compounds were administered intraperitoneally twice daily. Bromodeoxyuridine (BrdU) was injected intraperitoneally at 50 mg/kg/day for six days during pump infusion. Twenty-four hours after the final BrdU administration, mice were sacrificed by transcardial perfusion with 4% paraformaldehyde at pH 7.4, and their brains were processed for immunohistochemical detection of incorporated BrdU in the SGZ. Dissected brains were immersed in 4% paraformaldehyde overnight at 4° C., then cryoprotected in sucrose before being sectioned into 40 μm thick free-floating sections. Unmasking of BrdU antigen was achieved through incubating tissue sections for two hours in 50% formamide/2×SSC at 65° C., followed by a five minute wash in 2×SSC and subsequent incubation for thirty minutes in 2M HCl at 37° C. Sections were processed for immunohistochemical staining with mouse monoclonal anti-BrdU (1:100). The number of BrdU+ cells in the entire dentate gyrus SGZ in the contralateral hemisphere (opposite side of surgically implanted pump) was quantified by counting BrdU+ cells within the SGZ and dentate gyrus in every fifth section throughout the entire hippocampus and then normalizing for dentate gyrus volume.

[2] = test system: dopaminergic neurons within the substantia nigra; settings: previously reported; cited from earlier work
[3] = test system: newborn hippocampal neurons; settings: previously reported; cited from earlier work
[4] = test system: motor neurons in the spinal cord; settings: previously reported; cited from earlier work
70 kD polypeptide = assay: Photo-crosslinking of 70 kD polypeptide and competition; assay type: binding; settings: FIG. 13
Excerpt: Note that non-specific, crosslinked bands are not competed by the “A20” variant, but that crosslinking of the 70 kD band was competed.

Row | Compound | # cell (E6)/mm^3 (number of BrdU+ cells) [1] | increase in the number of BrdU+ cells compared to vehicle ([1]; ICV, 1 week, FIG. 1) | also measured
1 | C#CCOc1ccc(C(=O)c2ccc(NCC(O)Cn3c4ccc(Br)cc4c4cc(Br)ccc43)cc2)cc1 (stereo not shown) [P7C3-S325] | 30.6 (E6)/mm^3 |  | 
2 | NCC(F)Cn1c2ccc(Br)cc2c2cc(Br)ccc21 (stereo not shown) [compound 10, 3-(3,6-dibromo-9H-carbazol-9-yl)-2-fluoropropan-1-amine] |  | 30% | 
3 | OC(CNc1ccccc1)Cn1c2ccc(Br)cc2c2cc(Br)ccc21 (stereo not shown) [P7C3, 1-(3,6-dibromo-9H-carbazol-9-yl)-3-(phenylamino)propan-2-ol] | 30 (E6)/mm^3 |  | protection of substantia nigra neurons from MPTP (earlier report) [2]: protect neurons in the substantia nigra; activity in the in vivo hippocampal neuroprotection assay (previous studies) [3]: approximately doubled; motor neuron cell death in the spinal cord [4]: minimize motor neuron cell death
4 | COc1cccc(NCC(O)Cn2c3ccc(Br)cc3c3cc(Br)ccc32)n1 (stereo not shown) [compound 15, 1-(3,6-dibromo-9H-carbazol-9-yl)-3-((6-methoxypyridin-2-yl)amino)propan-2-ol] |  | 30% | 
5 | [N-]=[N+]=NCC(F)Cn1c2ccc(Br)cc2c2cc(Br)ccc21 (stereo not shown) [compound 9, 9-(3-azido-2-fluoropropyl)-3,6-dibromo-9H-carbazole] |  |  | number of surviving newborn hippocampal neurons ([1]; ICV, 1 week, FIG. 1): inactive
6 | NCC(O)Cn1c2ccc(Br)cc2c2cc(Br)ccc21 (stereo not shown) [compound 14, 1-amino-3-(3,6-dibromo-9H-carbazol-9-yl)propan-2-ol] |  | 30% | 
7 | OC(CNc1ccccn1)Cn1c2ccc(Br)cc2c2cc(Br)ccc21 (stereo not shown) [compound 1, 1-(3,6-dibromo-9H-carbazol-9-yl)-3-(pyridin-2-ylamino)propan-2-ol] |  |  | activity in the in vivo hippocampal neuroprotection assay (previous studies) [3]: maintaining activity
8 | O=C(CCCC[C@@H]1SC[C@@H]2NC(=O)N[C@@H]21)NCCOCCOCCOCCn1cc(COc2ccc(OCC(O)Cn3c4ccc(Br)cc4c4cc(Br)ccc43)cc2)nn1 (stereo partly shown) [P7C3-S318] | 20.8 (E6)/mm^3 |  | 
9 | C#CCOc1ccc(C(=O)c2cccc(NCC(F)Cn3c4ccc(Br)cc4c4cc(Br)ccc43)c2)cc1 (stereo not shown) [P7C3-S326] | 25 (E6)/mm^3 |  | photo-crosslinking products (70 kD polypeptide): photo-crosslinking of 70 kD polypeptide
